# Assay results taken from patent publication US9624288B2, “Engineered receptors and their use” (University of Pittsburgh—Of the Commonwealth System of …, priority 2012, dated 2017).
# Read-outs that look alike come from different tables or passages of the source.
# What was measured:
# [1] = target: T1, EG3 (SEQ ID NO: 12) ELIC-GlyR (EG) Cl- channel (Dickeya chrysanthemi, UniProt P0C7B7, INS163G); assay: Two-electrode voltage clamp, amine agonist activation of the EG channel in Xenopus oocytes; assay type: cell-based, Erwinia chrysanthemi / human; details: for Hill slope / Hill coeff.: agonist dose response on EG channel
# T1 construct: expressed in transfected cells; host or cells: Xenopus laevis oocytes injected with construct DNA in the pAAV vector
# Procedure: (§1) For pH measurements, 10 mM MES was added. […] Non-linear regressions were performed using Prism software (Graphpad). […] (FIG. 2).
# [2] = system: CFA-induced inflammation of the hind paw; details: for mechanical hypersensitivity, EG channel not activated: EG rats before cysteamine versus control group
# Procedure: In one experiment, 8 rats were assigned to two groups to receive either EG expression plasmid or the control plasmid […] the EG insertion. […] Thereafter, inflammation was induced in the same hind paw by complete Freund's adjuvant (CFA) injection (50 μl). Hypersensitivity was measured using a Von Frey pain-testing device after CFA injection. This test measures the maximum force applied to the paw through a flexible thin wire before paw withdrawal. Note that this version of the channel design, EG3 (SEQ ID NO: 12), requires a small agonist molecule (propylamine or cysteamine) to open the Cl^− channels.
# Rats were randomly assigned to two groups to receive a subcutaneous injection of 1 mg (in 200 μl) purified EG expression vector into the left hind paw or the control plasmid vector without the EG insertion in an identical fashion. […] After CFA injections, the rats were tested both before and after cysteamine administration to assess the specific analgesic effects from the expressed EG channels.
# The Institutional Animal Care and Use Committee at the University of Pittsburgh approved all animal procedures used in the studies. Male Sprague-Dawley rats, weighing 220-250 g, were obtained from Harlan Laboratories, allowed to acclimate to the housing and experimental facilities, evaluated for baseline behavioral response to thermal and mechanical pain, and then subjected to inflammatory pain model and behavioral testing. The expression vectors, 1000 μg in a volume of 200 μl phosphate-buffered saline (PBS), were injected directly into the plantar of the left hind paw with a 27-gauge needle under brief 2.5% isoflurane anesthesia. One week after the vector injection, 50 μl of CFA (Sigma, St. Louis, Mo., USA) were injected into the same hind paw subcutaneously with a 27-gauge needle under brief isoflurane anesthesia, as described previously {Fraser, 2000 #180}.
# Animals were placed above a grid floor inside a plastic divider. Thresholds to the mechanical pressures applied directly onto the plantar by a blunt metal filament of 100 mm in length and 0.38 mm in diameter were assessed using a custom-made von Frey apparatus. The apparatus uses a high precision load cell (100 g capacity and 0.01 g accuracy) interfaced with a PASPORT load cell amplifier (Model PS-2205, PASCO Scientific, Roseville, Calif.) for continuously measuring the forces applied to the plantar through the metal filament. The DataStudio software from PASCO Scientific was used to record the entire time course of the applied forces and the maximum force immediately before the paw withdrawal. The threshold values were determined as a mean of at least three separate measurements under each testing condition.
# Both von Frey and plantar tests were conducted using the schedule as depicted in FIG. 3a. On each testing day after CFA injection, behavioral evaluations were repeated before and at least 15 min after cysteamine administration. Cysteamine (500 μl of 100 mM solution in PBS) was injected subcutaneously elsewhere on the body to prevent tissue damage from repeated injections.
# [3] = system: CFA-induced inflammation of the hind paw; assay: Plantar (Hargreaves) test of thermal hypersensitivity after CFA-induced inflammation; assay type: in vivo, rat
# Procedure: The plantar sensitivity to heat-induced pain was examined using a plantar algesia meter (Model 390G; IITC Life Science, Woodland Hills, Calif.; active intensity, 23%). Rats were placed inside a plastic divider on a constant-temperature glass plate and acclimated to the environment for at least 20 minutes before testing. A heat source was focused directly onto the plantar surface of the hind paw. Once activated, the apparatus applied a continuous heat stimulus to the plantar surface to evoke a distinctive reflex of paw withdrawal. The rats were examined with at least a five-minute interval between consecutive tests. Paw withdrawal latencies were recorded and averaged for each hind paw. A 22-second automatic cut-off time was set to prevent tissue damage from heating.
# [4] = prescription drug for cystinosis; cited from earlier work
# [5] = target: T2, EGRAFY mutant (R91A, F188Y; SEQ ID NO: 15) (Dickeya chrysanthemi, UniProt P0C7B7, F187Y/INS163G/R91A); assay: Two-electrode voltage clamp, amine agonist activation of the EGRAFY mutant in oocytes; assay type: cell-based, Erwinia chrysanthemi / human
# T2 construct: expressed in transfected cells; host or cells: Xenopus laevis oocytes
# Procedure: as §1
# EG channel = EG channel (Dickeya chrysanthemi, UniProt P0C7B7, INS163G)
# Procedure: Non-linear regressions were performed using Prism software (Graphpad).
# ELIC-GlyR chimeras = assay: Cysteamine response of ELIC-GlyR chimera constructs in Xenopus oocytes; assay type: cell-based, Erwinia chrysanthemi / human
# Source text: The EG chimera was constructed by fusing the extracellular domain of ELIC with the transmembrane domain of the α1 subunit of human GlyR. Five constructs were made to test the importance of interface elements at the fusion junction (pre-TM1), the loop between transmembrane helices 2 and 3 (TM23), and C-terminus (Figure S1 a). In addition, the long cytoplasmic loop was removed to facilitate homogeneous expression (i.e., “VSR . . . KID” was replaced with “[…]”). All designed constructs expressed functional channels in Xenopus oocytes and were responsive to the agonist cysteamine. The constructs mostresponsive to cysteamine, EG and EGd (Figure S1 b), included a native GlyR TM23 loop and an ELIC C-terminus (Figure S1). The fusion junction had less effect on cysteamine response (compare EG and EGd).
# T2 sequence (P0C7B7 other isoform, or with tags, fused parts or gaps R91A/INS163G/F187Y): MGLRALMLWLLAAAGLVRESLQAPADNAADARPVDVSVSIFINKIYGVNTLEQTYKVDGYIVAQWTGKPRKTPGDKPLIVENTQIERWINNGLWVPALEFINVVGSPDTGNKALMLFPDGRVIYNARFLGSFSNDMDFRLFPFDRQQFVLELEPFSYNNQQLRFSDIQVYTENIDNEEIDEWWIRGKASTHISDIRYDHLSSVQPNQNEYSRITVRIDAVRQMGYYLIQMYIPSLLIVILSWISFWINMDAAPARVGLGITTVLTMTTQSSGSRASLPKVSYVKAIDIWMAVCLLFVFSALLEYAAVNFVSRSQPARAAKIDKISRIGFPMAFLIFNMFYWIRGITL
Molecule,EC50 [1] [µM],Hill slope / Hill coeff. [1],"mechanical hypersensitivity / pain scores after cysteamine administration ([2]; control plasmid rats (no EG), after CFA, listed as Cysteamine)","thermal hypersensitivity after cysteamine administration ([3]; control plasmid rats (no EG), after CFA)","thermal hypersensitivity after cysteamine administration ([3]; rats expressing EG, after CFA)",safety in clinical use [4],increase in potency in the EGRAFY mutant as compared to the EG channel [5],"Hill coeff. ([5]; EGRAFY mutant, n=6)",shift in reversal potential upon replacing Na+ with choline (EG channel),shift in reversal potential upon replacing Cl- with gluconate (EG channel; 130 mM external solution) [mV],"mechanical hypersensitivity, EG channel not activated ([2]; after CFA)","mechanical hypersensitivity, EG channel not activated ([2]; after CFA, listed as EG)","mechanical hypersensitivity, EG channel not activated ([2]; after CFA, listed as EG channels)","basal mechanical and thermal thresholds ([2]; rat, in vivo)","hypersensitivity to heat-induced pain, EG channel not activated ([3]; EG rats before cysteamine versus control group)","latency to paw withdrawal, EG injection compared to the control ([3]; after CFA, EG n=4, control n=5)",cysteamine response of the construct (ELIC-GlyR chimeras)
NCCS [cysteamine],960 ± 120,1.1±0.1,no analgesia,not inherently an analgesic,significantly attenuated,safe with no psychoactive effects,–,–,–,–,–,–,–,–,–,–,–
CCCN [propylamine],740 ± 110,0.5±0.04,–,–,–,–,~3 orders of magnitude,0.98±0.07,–,–,–,–,–,–,–,–,–
"EG channel: ELIC extracellular domain fused to human GlyR α1 transmembrane domain; amine-gated Cl- channel, delivered as expression plasmid in vivo (protein, Engineered Chloride Channel Receptor, ELIC extracellular domain fused to human GlyR α1 transmembrane domain; amine-gated Cl- channel, delivered as expression plasmid in vivo) MGLRALMLWLLAAAGLVRESLQAPADNAADARPVDVSVSIFINKIYGVNTLEQTYKVDGYIVAQWTGKPRKTPGDKPLIVENTQIERWINNGLWVPALEFINVVGSPDTGNKRLMLFPDGRVIYNARFLGSFSNDMDFRLFPFDRQQFVLELEPFSYNNQQLRFSDIQVYTENIDNEEIDEWWIRGKASTHISDIRYDHLSSVQPNQNEFSRITVRIDAVRQMGYYLIQMYIPSLLIVILSWISFWINMDAAPARVGLGITTVLTMTTQSSGSRASLPKVSYVKAIDIWMAVCLLFVFSALLEYAAVNFVSRSQPARAAKIDKISRIGFPMAFLIFNMFYWIRGITL",–,–,–,–,–,–,–,–,no significant shift,50,did not produce measurable changes,no measureable effects,little measurable changes,neither EG nor the control plasmids caused measureable changes,partially alleviated,significant attenuation of thermal hypersensitivity,mostresponsive
